Here are results for one compound from ChEMBL document CHEMBL5550209, “Hit-to-Lead Optimization of Heterocyclic Carbonyloxycarboximidamides as Selective Antagonists at Human Adenosine A3 Receptor” (J Med Chem, 2024).

A short description of the data set: Plasma protein binding in human at 10 uM measured upto 24 hrs by equilibrium dialysis method.

One may read the fraction unbound as the share of the substance not bound to proteins or other matrix. Read a low fraction unbound as extensive binding.

`CN[C@H]1CC[C@@H](c2ccc(Cl)c(Cl)c2)c2ccccc21` [SERTRALINE] yielded an unbound share (fraction unbound) at 24 h, 10 µM of 0.01.
